Assay results published in ChEMBL document CHEMBL1201862, “PubChem BioAssay data set” (2004).
The source made the active and inactive calls.

What was measured:
[1] = viability of HCT116 lacking mutant beta-catenin – cell-based, human colon tumor, dose response (AID 1045); assay type: functional;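 also: HCT116 colon tumor cells with beta catenin knocked out; cells exposed to compound for 60 hours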
BJ [2] = assay: BJ-TERT-LT-ST fibroblast viability loss – cell-based, RAS-independent, luminescence, dose response (AID 1935); assay type: functional; settings: Homo sapiens;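 also: BJ fibroblasts immortalized with TERT plus LT and ST oncogenes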
[3] = DRD fibroblast viability loss – cell-based, non-viral oncogenic, luminescence, dose response (AID 1934); assay type: functional; settings: Homo sapiens
Caspase-6 = biological target: T1, Caspase-6 (Homo sapiens, UniProt P55212); assay: inhibition of CASP6 peptide cleavage – biochemical, VEID-R110 fluorescence, cherry-pick, dose response (AID 720632)
T1 sequence (P55212 whole entry): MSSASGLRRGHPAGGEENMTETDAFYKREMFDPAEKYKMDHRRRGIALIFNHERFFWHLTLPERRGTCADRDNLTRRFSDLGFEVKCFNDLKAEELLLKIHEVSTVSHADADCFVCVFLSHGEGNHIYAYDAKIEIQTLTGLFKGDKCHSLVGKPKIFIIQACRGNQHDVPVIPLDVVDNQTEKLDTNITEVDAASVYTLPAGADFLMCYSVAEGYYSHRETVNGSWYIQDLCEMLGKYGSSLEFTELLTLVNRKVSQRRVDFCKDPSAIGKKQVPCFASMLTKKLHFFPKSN

[4] = viability of PTEN-deleted HCT116 cells – cell-based, HCT116 PTEN knockout, dose response (AID 1047); assay type: functional;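 also: HCT116 colon tumor cells with PTEN knocked out; cells exposed to compound for 60 hours before readout; potency for loss of cell viability measured by luminescence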
[5] = biological target: T2, Microphthalmia-associated transcription factor (Homo sapiens, UniProt O75030); assay: reducers of TRPM1 reporter luminescence, concentration series – cell-based, SK-MEL-5, cherry-picked, set 3, MITF inhibitor project, dose response (AID 493073); assay type: functional;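 also: SK-MEL-5 melanoma cells with luciferase driven by the MITF target TRPM1 promoter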
T2 sequence (O75030 whole entry): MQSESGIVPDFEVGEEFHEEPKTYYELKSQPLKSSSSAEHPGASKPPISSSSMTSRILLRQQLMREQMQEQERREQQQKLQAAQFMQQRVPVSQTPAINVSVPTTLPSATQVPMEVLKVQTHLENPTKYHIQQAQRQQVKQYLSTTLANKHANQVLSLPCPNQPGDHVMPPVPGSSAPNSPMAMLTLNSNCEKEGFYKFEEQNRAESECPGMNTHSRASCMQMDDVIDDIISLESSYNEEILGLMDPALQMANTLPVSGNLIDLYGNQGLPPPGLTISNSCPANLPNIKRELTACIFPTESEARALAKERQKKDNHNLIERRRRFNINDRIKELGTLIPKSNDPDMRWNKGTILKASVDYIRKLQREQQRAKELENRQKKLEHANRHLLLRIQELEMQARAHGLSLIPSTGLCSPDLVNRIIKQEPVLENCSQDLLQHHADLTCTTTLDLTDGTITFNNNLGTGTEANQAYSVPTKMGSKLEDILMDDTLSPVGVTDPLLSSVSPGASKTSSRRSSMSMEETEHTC

Vero = assay: cells; assay type: functional, cell-based; settings: Chlorocebus sabaeus
BJ [6] = assay: BJ-TERT fibroblast viability loss – cell-based, RAS-independent, luminescence, dose response (AID 1933); assay type: functional; settings: Homo sapiens
HEK293 [7] = assay: cells; settings: Homo sapiens
[8] = Vero E6 cell cytotoxicity, dose response, cytotoxicity control for non-replicating M. tuberculosis project, secondary assay (AID 492998); assay type: functional, VeroE6; settings: Vero C1008
[9] = THP-1 cell cytotoxicity, dose response, cytotoxicity control for non-replicating M. tuberculosis project (AID 489025); assay type: functional
[10] = biological target: T3, Heat shock factor protein 1 (Mus musculus, UniProt P38532); assay: enhancement of HSF1-driven luciferase signal – cell-based, NIH3T3, luminescence, dose retest, confirmation (AID 435004); assay type: functional;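 also: stress induced by proteasome inhibitor MG132 added 30 min after compound; luciferase reporter driven by HSF1 response element in NIH3T3 cells; actives raise luminescence as potentiators of the MG132 stress response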
T3 sequence (P38532 whole entry): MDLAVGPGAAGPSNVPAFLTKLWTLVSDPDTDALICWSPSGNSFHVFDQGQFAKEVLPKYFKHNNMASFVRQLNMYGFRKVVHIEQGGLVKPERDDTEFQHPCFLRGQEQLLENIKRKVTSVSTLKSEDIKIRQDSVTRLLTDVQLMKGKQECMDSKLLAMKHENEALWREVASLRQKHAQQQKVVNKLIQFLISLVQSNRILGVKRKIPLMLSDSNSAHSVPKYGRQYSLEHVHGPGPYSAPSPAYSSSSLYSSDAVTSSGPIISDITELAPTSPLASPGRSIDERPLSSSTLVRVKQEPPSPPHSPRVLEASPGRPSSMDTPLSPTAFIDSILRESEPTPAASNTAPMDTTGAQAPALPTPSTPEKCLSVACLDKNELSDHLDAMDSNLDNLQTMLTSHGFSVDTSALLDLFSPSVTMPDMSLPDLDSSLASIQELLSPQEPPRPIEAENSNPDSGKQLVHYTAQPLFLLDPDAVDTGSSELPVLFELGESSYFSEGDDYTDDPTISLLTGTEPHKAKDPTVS

HEK293 [11] = assay: cells; settings: Homo sapiens; remark: listed apart in the source
BJ [12] = assay: cells; assay type: functional, cell-based; settings: Homo sapiens
cells = assay type: functional
HeLa = assay: ATP-based viability loss in HeLa cells – cell-based, CellTiter-Glo luminescence, cherry-pick samples, cytotoxicity control for MITF activator project, dose response (AID 540259); assay type: functional; settings: Homo sapiens
CAAX prenyl protease 2 [13] = biological target: CAAX prenyl protease 2 (Homo sapiens, UniProt Q9Y256); assay: inhibition of Ras-converting CAAX protease Rce1 – biochemical, yeast membranes, quenched-peptide fluorescence, cherry-pick, dose response (AID 588849)
[14] = biological target: Beta-2 adrenergic receptor (Homo sapiens, UniProt P07550); assay: ADRB2 activation measured by internalization – cell-based, FAP fluorogen, flow cytometry, cherry pick 1, dose response (AID 588763); assay type: functional
Trypsin = Trypsin (Sus scrofa, UniProt P00761); assay: trypsin protease activity blockade – biochemical, quenched peptide fluorescence, cherry-pick, selectivity assay for Rce1 protease inhibitor project, dose response (AID 488789)
CAAX prenyl protease 2 [15] = biological target: T4, CAAX prenyl protease 2 (Saccharomyces cerevisiae S288c, UniProt Q03530); assay type: biochemical
T4 sequence (Q03530 whole entry): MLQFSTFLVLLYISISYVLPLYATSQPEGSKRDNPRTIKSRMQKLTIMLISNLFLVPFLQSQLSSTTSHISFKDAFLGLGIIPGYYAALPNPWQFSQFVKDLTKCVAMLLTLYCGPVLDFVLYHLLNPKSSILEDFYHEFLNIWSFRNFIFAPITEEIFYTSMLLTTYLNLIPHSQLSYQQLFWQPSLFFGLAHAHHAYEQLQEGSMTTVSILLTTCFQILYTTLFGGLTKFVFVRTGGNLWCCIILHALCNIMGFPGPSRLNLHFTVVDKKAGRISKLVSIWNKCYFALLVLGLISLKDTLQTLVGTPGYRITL

Mu-type opioid receptor = Mu-type opioid receptor (Homo sapiens, UniProt P35372); assay: (§1) Counterscreen for agonists of heterodimerization of the mu 1 (OPRM1) and delta 1 (OPRD1) opioid receptors: Luminescence-based cell-based high throughput dose response assay to identify agonists of OPRM1 homodimerization.; assay type: functional
[16] = biological target: T5, Short transient receptor potential channel 4 (Mus musculus, UniProt Q9QUQ5); assay: calcium entry via TRPC4 opening agents – cell-based, HEK293 TRPC4/mu-opioid, Fluo-4 calcium, dose response (AID 434937); assay type: functional
T5 sequence (Q9QUQ5 whole entry): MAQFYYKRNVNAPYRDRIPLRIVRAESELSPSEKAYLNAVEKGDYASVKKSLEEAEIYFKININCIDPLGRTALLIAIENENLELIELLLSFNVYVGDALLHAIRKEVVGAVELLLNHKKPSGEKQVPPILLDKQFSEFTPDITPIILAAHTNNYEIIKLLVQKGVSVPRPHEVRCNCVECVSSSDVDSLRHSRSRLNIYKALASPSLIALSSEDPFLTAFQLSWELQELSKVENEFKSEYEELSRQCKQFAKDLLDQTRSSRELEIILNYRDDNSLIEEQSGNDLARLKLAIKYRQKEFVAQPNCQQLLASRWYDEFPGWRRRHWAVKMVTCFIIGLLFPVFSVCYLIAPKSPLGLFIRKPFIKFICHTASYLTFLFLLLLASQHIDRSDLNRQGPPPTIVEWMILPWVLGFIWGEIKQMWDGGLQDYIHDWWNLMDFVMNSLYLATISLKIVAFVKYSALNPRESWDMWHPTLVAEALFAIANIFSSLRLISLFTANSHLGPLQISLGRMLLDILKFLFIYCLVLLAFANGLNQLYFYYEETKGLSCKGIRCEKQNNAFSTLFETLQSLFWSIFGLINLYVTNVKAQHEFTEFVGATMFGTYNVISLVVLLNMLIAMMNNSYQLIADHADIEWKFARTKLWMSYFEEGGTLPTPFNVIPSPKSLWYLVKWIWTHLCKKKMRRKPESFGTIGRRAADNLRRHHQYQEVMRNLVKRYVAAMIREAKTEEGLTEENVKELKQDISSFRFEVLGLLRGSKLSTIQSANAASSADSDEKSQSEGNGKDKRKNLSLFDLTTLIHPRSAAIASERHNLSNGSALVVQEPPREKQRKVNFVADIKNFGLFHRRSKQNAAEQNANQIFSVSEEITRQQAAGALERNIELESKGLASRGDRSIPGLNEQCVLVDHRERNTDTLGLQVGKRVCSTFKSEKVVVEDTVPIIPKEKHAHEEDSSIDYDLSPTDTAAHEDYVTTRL

[17] = biological target: 5-hydroxytryptamine receptor 5A (Homo sapiens, UniProt P47898); assay: Counterscreen for agonists of OPRM1-OPRD1 heterodimerization: luminescence-based cell-based high throughput dose response assay to identify agonists of 5-hydroxytryptamine (serotonin) 5A receptor (HTR5A). [Related pubchem assays (depositor defined):AID504326, AID504355, AID504692, AID504904, AID504905]; assay type: functional
[18] = biological target: Delta-type opioid receptor (Homo sapiens, UniProt P41143); assay: as §1, with “of OPRD1” for “of OPRM1”, “homodimerization. [Related pubchem assays (depositor defined):AID504326, AID504355, AID504692, AID504904, AID504905]” for “homodimerization.”; assay type: functional
Chain of Delta-type opioid receptor (P41143 whole entry): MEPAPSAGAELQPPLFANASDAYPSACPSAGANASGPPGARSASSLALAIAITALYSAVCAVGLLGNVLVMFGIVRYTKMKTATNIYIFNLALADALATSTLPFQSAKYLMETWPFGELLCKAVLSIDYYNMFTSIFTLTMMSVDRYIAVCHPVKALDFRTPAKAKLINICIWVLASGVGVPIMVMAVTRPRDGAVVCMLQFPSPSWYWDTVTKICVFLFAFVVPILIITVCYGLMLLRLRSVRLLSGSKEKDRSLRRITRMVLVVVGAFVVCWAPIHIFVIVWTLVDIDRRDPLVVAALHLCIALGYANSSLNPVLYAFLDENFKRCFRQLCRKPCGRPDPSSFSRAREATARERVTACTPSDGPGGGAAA

Chain of CAAX prenyl protease 2 (Homo sapiens, UniProt Q9Y256) (Q9Y256 whole entry): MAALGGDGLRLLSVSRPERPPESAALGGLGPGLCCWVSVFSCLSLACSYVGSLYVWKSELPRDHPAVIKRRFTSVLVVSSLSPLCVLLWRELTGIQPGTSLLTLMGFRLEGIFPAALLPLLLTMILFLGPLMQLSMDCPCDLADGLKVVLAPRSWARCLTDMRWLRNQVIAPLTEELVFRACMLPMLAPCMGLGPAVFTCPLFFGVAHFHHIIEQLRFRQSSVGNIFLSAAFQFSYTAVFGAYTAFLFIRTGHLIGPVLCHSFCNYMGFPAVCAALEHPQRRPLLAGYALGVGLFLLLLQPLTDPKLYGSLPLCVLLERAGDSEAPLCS
Chain of Beta-2 adrenergic receptor (P07550 whole entry): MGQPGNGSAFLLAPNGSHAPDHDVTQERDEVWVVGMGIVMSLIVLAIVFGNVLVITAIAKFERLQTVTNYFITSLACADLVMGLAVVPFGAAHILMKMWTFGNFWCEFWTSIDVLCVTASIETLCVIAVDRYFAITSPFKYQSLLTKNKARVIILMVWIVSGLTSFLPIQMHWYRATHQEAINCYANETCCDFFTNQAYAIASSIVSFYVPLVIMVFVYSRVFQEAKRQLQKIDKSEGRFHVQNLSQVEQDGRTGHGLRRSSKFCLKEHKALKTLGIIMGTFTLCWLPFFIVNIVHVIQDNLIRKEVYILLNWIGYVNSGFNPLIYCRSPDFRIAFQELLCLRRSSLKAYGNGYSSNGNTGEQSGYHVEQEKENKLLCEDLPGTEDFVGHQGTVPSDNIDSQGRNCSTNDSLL
Chain of Mu-type opioid receptor (P35372 whole entry): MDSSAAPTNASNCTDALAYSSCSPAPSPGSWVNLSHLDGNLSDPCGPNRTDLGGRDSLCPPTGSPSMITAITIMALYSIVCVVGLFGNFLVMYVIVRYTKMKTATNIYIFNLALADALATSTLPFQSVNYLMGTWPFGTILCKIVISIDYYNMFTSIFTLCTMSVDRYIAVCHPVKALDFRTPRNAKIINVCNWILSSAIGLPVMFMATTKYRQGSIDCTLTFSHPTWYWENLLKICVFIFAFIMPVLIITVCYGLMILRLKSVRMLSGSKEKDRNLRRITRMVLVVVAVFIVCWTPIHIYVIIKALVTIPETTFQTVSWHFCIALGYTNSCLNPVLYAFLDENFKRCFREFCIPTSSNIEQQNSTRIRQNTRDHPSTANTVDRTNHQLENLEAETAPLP
Chain of Trypsin (P00761 whole entry): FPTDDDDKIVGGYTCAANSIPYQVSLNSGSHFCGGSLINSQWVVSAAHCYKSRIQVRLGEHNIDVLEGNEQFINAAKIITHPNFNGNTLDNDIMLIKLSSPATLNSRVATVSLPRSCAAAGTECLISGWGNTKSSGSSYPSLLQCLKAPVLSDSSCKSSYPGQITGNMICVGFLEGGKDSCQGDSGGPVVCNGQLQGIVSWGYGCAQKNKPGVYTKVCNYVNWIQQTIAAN
Chain of 5-hydroxytryptamine receptor 5A (P47898 whole entry): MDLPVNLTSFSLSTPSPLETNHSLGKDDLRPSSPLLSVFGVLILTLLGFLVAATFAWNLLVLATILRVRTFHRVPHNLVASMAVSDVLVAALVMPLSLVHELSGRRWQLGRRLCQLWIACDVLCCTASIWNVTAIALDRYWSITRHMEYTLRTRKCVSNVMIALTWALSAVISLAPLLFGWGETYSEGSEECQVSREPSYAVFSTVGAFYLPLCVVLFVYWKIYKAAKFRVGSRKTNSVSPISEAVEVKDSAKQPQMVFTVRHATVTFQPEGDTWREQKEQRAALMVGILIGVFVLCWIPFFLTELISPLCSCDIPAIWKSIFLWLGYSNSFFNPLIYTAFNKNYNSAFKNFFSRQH

Which results are given for O=C1c2cc([N+](=O)[O-])cc3cc([N+](=O)[O-])cc(c23)C(=O)N1c1ccccn1?
EC50 [1]: 7.76 µM (active); EC50 (BJ [2]): > 150 µM (inconclusive); EC50 [3]: 11.2 µM (active); AC50 (Caspase-6): 15.3 µM (active); EC50 [4]: 9.92 µM (active); AC50 [5]: 7.92 µM (active); IC50 (Vero): 16.3 µM (active); EC50 (BJ [6]): 37.1 µM (active); EC50 (HEK293 [7]): > 59.7 µM (inactive); CC50 [8]: 15.2 µM (active); CC50 [9]: 17.5 µM (active); EC50 [10]: 13.7 µM (active); EC50 (HEK293 [11]): > 59.7 µM (inactive); EC50 (BJ [12]): 54.8 µM (active); IC50 (cells): 3.43 µM (active)

For C/C(=N/OC(=O)CC(C)C)c1cc(-c2ccc(Cl)cc2)no1, which AC50 (HeLa) is on record?
Its AC50 is 58.7 µM (active).

For Cc1ccc(CNC(=O)c2cc(-c3ccccc3)nn2CC2CC(c3cccc([N+](=O)[O-])c3)=NO2)cc1 (configuration not stated), which AC50 (CAAX prenyl protease 2 [13]) is on record?
The AC50 was 30 µM (active).

Which EC50 [14] does the source give for Cc1ccc(OCc2cc(C(=O)NCc3ccc(OC(F)(F)F)cc3)no2)cn1 here?
Its EC50 is 0.792 µM (active).

For CC1(C)CNC(=O)c2sc(NC(=O)c3ccccc3)nc2C1, which AC50 (HeLa) is on record?
The AC50 was 55 µM (active).

With Nc1ccc(Cc2ccc(N)c(C(=O)O)c2)cc1C(=O)O as the molecule, how does the AC50 (Trypsin) read?
The AC50 was 7.3 µM (active).

What about the AC50 (Caspase-6) of the same molecule?
The AC50 was 37.8 µM (active).

What about the AC50 (CAAX prenyl protease 2 [13]) of the same molecule?
Its AC50 is 2.25 µM (active).

What about the AC50 (CAAX prenyl protease 2 [15]) of the same molecule?
The AC50 was 32.3 µM (active).

What does the source list for Cc1cccc(NC(S)=NCC(c2cccnc2)N(C)C)c1 (configuration not stated)?
EC50 (Mu-type opioid receptor): 15.6 µM (inactive); EC50 [16]: 0.0267 µM (active); EC50 [17]: > 92.5 µM (inactive); EC50 [18]: > 92.5 µM (inactive)
